The test system of one assay is EGFR. The assay can be described thus: Western blotting, EGF-induced phosphorylation. The format is cell-based, human. The conditions noted are these: A549 cells, pretreated 8 h, EGF 10 minutes. On the procedure: A549 cells (5×10^5 cells/60 mm) were pretreated with various concentrations of GMI (4, 16 μg/ml) or AG1478 (EGFR inhibitors) for 8 hours prior to incubation for 10 minutes with EGF (as indicated). Cell lysates were subject to immunoblotting with phospho-specific EGFR (Y1068) (A and B), anti-phospho-AKT (A), anti-AKT (A), anti-phospho-GSK3β (A) or anti-phospho-STAT3 antibodies (B). Protein loading was determined by Western blotting against β-actin (A and B).
Total cell lysates were prepared in RIPA buffer (100 μl in 60 mm in dish). Fifty μg of lysate were loaded onto an 8% polyacrylamide gel and analyzed by SDS gel electrophoresis. After transfer to PVDF (Amersham), blots were blocked with 5% skim milk in TBS (10 mM Tris-CL pH7.5, 150 mM NaCl) containing 0.2% Tween-20. Blots were probed with antibodies (at their recommended dilutions) in 5% skim milk in TBS overnight at 4° C. Following detection with the appropriate horseradish-peroxidase conjugated secondary antibody (Cell Signaling), blots were developed by enhanced chemiluminescence according to the manufacturer's directions (Perkin Elmer Life Sciences). All experiments were performed in duplicate.
To assess whether GMI mediates and/or inhibits phosphorylation of Akt and Stat3, the invention investigated the effect of GMI on the phosphorylation status of Akt and Stat3 in A549 cells treated with various concentrations of GMI for 8 h.

Another assay relates to A549/D16. The assay can be described thus: MTT assay, drug sensitivity. The class given is cell-based, human. The conditions noted are these: for value in parentheses after IC50 (ratio to parental A549): A549/D16; for IC50: Homo sapiens, A549/D16, 48 h, MTT. On the procedure: (§1) A549 cell line and resistant A549 cell sublines (A549/D16, A549/D32 and A549/V16) (5000 cells/well of 96-well plate) were treated with increased doses concentrations (μM) of GMI from Ganoderma microsporum, docetaxel, vincristine and doxorubicin for 48 h, respectively. Cell viability was measured by MTT assay and the results are presented as the calculated cell growth inhibitory ratio. Experiments were repeated three times.
For orientation: Tetrazolium dyes change colour on reduction, which living cells bring about.

The next assay relates to A549/D32. The assay can be described thus: MTT assay, drug sensitivity. The format is cell-based, human. The conditions noted are these: for value in parentheses after IC50 (ratio to parental A549): A549/D32; for IC50: Homo sapiens, A549/D32, 48 h, MTT. On the procedure: as §1
Another assay relates to A549/V16. The assay can be described thus: MTT assay, drug sensitivity. The class given is cell-based, human. The conditions noted are these: for value in parentheses after IC50 (ratio to parental A549): A549/V16; for IC50: Homo sapiens, A549/V16, 48 h, MTT. On the procedure:
as §1

In a further assay the test system is A549. The assay can be described thus: MTT assay, drug sensitivity. The class given is cell-based, human. The conditions noted are these: for IC50: Homo sapiens, A549, 48 h, MTT. On the procedure: as §1
The next assay relates to CaLu-1 cells. The assay can be described thus: MTT assay, cisplatin and GMI co-treatment. The class given is cell-based. The conditions noted are these: CaLu-1, 48 h, read-out: cisplatin alone concentration needed to achieve about 50% cell viability. On the procedure: CaLu-1 cells were co-treated with various concentrations of cisplatin (0, 2.5, 5, 10, 20 μM) and GMI from Ganoderma microsporum (0, 4, 8 and 16 μg/mL) for 48 h followed by MTT assay to estimate cell viability.
MTT assay was used to determine the effect of GMI and cisplatin on the proliferation of Calu-1 cells. In metabolically active cells, MTT (Thiazolyl Blue Tetrazolium Bromide) (Sigma) was reduced by dehydrogenase enzyme into an formazan product. Absorbance was measured directly at 570 nm from 96-well assay plates after adding 100 μl DMSO. The quantity of formazan was considered to be directly proportional to the number of viable cells in the culture.
Briefly, the cells (5×10^3) were incubated on 96-well plates containing 200 μl of growth medium. After 24 h incubation, the medium was carefully removed and 100 μl of fresh medium containing various concentrations of GMI and cisplatin were added to the wells. The cells were treated with GMI and cisplatin continuously for 48 h with 0, 4, 8, 16 μg/ml for GMI and with 0, 2.5, 5 and 10 μM for cisplatin. […] The absorbance was analyzed on a VERSAmax microplate reader at 570 nm. Absorbance values were presented as the mean±SE of 3 replicates for each treatment. […] Absorbance of untreated cells was considered 100%. […]

For the compound `COc1cc2ncnc(Nc3cccc(Cl)c3)c2cc1OC` [AG1478, reference compound], the “EGF-induced activation (phosphorylation) of EGFR” value in the assay on EGFR is listed as “able to inhibit EGFR phosphorylation”.
Turning to `CC(=O)O[C@@]12CO[C@@H]1C[C@H](O)[C@@]1(C)C(=O)[C@H](O)C3=C(C)[C@@H](OC(=O)[C@H](O)[C@@H](NC(=O)OC(C)(C)C)c4ccccc4)C[C@@](O)([C@@H](OC(=O)c4ccccc4)[C@H]21)C3(C)C` [Docetaxel], the “value in parentheses after IC50 (ratio to parental A549)” value (from here on “value … (ratio to parental A549)”) with A549/D16 amounted to 114.1; in the assay on A549/D32, 318.0; with A549/V16, 121.9; in the assay with A549, 1.0. Further, the IC50 was found to be 730 ± 56.6 nM in the assay on A549/D16, 2040 ± 955 nM with A549/D32, 780 ± 51.3 nM in the assay with A549/V16 and 6.4 ± 0.1 nM with A549.
For the compound `COc1cccc2c1C(=O)c1c(O)c3c(c(O)c1C2=O)C[C@@](O)(C(=O)CO)C[C@@H]3O[C@H]1C[C@H](N)[C@H](O)[C@H](C)O1` [Doxorubicin], the “value … (ratio to parental A549)” value in the assay on A549/D16 turned out to be 15.4; in the assay with A549/D32, 34.6; in the assay with A549/V16, 6.9; with A549, 1.0. Besides, the IC50 with A549/D16 stood at 3420 ± 152 nM; in the assay on A549/D32, 7690 ± 148 nM; in the assay with A549/V16, 1530 ± 80.8 nM; in the assay with A549, 223 ± 23.2 nM.
In the case of `CC[C@]1(O)C[C@H]2CN(CCc3c([nH]c4ccccc34)[C@@](C(=O)OC)(c3cc4c(cc3OC)N(C=O)[C@H]3[C@@](O)(C(=O)OC)[C@H](OC(C)=O)[C@]5(CC)C=CCN6CC[C@]43[C@@H]65)C2)C1` [Vincristine], the “value … (ratio to parental A549)” value in the assay with A549/D16 is given as 51.9; in the assay with A549/D32 it was 49.2; in the assay with A549/V16, 51.2; with A549 it was 1.0. In addition, the IC50 in the assay with A549/D16 amounted to 770 ± 56.6 nM; in the assay on A549/D32 it was 730 ± 28.3 nM; in the assay with A549/V16 it was 760 ± 92.4 nM; in the assay on A549 it was 14.9 ± 0.1 nM.
As for `N.N.[Cl][Pt][Cl]` [cisplatin], in the assay with CaLu-1 cells, the IC50 is about 10000 nM.

For the origin of these results see patent US9018171B2, “Uses of an immunomodulatory protein (GMI) from Ganoderma microsporum” (Mycomagic Biotechnology Co., Ltd., priority 2010, dated 2015).
